According to article PMC11356571, “The Comparative Metabolism of a Novel Hepatocellular Carcinoma Therapeutic Agent, 2,3-Diamino-N-(4-(benzo[d]thiazol-2-yl)phenyl)propanamide, in Human and Animal Hepatocytes” (Metabolites, 2024):

Assays:
Format in all cases: in vitro ADME
[1] = target: T1, CYP2C8 (Homo sapiens, UniProt P10632); assay: Incubation with human cDNA-expressed CYP2C8; details: CYP2C8, 30 min at 37 °C with NADPH; ETN101 10 μM or M1 1 μM
T1 construct: purchased Cypex Ltd. (Dundee, UK)
T1 sequence (P10632 1-490): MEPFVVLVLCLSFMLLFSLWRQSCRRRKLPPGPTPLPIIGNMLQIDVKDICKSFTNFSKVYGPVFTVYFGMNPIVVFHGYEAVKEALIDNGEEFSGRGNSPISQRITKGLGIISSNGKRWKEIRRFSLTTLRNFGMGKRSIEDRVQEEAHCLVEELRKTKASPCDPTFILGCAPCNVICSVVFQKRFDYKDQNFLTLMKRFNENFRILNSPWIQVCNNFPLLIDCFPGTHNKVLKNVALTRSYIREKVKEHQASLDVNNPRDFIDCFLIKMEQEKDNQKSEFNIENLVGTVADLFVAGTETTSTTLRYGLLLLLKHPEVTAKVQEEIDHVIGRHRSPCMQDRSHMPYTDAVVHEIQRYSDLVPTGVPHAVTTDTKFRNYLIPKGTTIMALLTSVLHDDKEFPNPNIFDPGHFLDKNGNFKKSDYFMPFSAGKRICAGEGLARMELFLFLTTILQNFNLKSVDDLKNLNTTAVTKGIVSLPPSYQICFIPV
Method: (§1) ETN101 or M1 was incubated with nine human cDNA-expressed CYP enzymes (1A2, 2A6, 2B6, 2C8, 2C9, 2C19, 2D6, 2E1, and 3A4) to identify the CYPs involved in the metabolism of ETN101. Based on the preliminary study, the incubation conditions were determined as follows: Briefly, reaction mixtures of 50 μL containing ETN101 (final concentration: 10 μM) or M1 (final concentration: 1 μM), and CYPs (final amount: 5 pmol for CYP1A2, 2A6, 2C8, 2C9, 2C19, 2D6, and 3A4; 10 pmol for CYP2B6 and 2E1) were prepared in 0.1 M potassium phosphate buffer. The reaction was initiated by adding 50 μL of NADPH- regenerating system; the mixtures were incubated for 0 min or 30 min at 37 °C in triplicate. Reactions were terminated by the addition of 100 μL of ice-cold acetonitrile containing the IS (camptothecin, 200 ng/mL). Samples were centrifuged at 13,000 rpm for 5 min at 4 °C. An aliquot of 2 μL supernatant was injected in LC–MS/MS system.
(§2) For enzyme characterization, an Agilent 6460 triple quadrupole mass spectrometer coupled with a 1260 HPLC system (Agilent Technologies, Santa Clara, CA, USA) and a Kinetex Halo® C18 column (2.7 μm, 2.1 × 50 mm, Advanced Material Technology, Wilmington, DE, USA) were used for chromatographic separation. […] ETN101, M1, and M2 were detected via MRM using ESI in the positive mode. […]

[2] = target: T2, CYP2C19 (Homo sapiens, UniProt P33261); assay: Incubation with human cDNA-expressed CYP2C19; details: CYP2C19, 30 min at 37 °C with NADPH; ETN101 10 μM or M1 1 μM
T2 construct: purchased Cypex Ltd. (Dundee, UK)
T2 sequence (P33261 whole entry): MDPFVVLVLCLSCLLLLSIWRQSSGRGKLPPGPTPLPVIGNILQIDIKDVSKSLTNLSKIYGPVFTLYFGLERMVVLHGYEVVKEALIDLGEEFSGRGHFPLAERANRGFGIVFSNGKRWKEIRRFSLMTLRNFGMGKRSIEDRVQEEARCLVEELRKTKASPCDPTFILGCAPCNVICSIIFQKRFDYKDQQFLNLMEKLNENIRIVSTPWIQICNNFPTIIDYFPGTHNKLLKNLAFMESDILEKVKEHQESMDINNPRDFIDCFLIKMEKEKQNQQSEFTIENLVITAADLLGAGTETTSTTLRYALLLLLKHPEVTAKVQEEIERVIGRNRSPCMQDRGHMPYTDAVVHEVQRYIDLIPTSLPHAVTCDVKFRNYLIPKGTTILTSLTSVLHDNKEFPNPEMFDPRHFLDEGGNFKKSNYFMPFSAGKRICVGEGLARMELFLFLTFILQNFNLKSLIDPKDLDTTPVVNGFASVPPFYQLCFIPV
Method: as §1, §2

[3] = target: T3, CYP2D6 (Homo sapiens, UniProt P10635); assay: Incubation with human cDNA-expressed CYP2D6; details: CYP2D6, 30 min at 37 °C with NADPH; ETN101 10 μM or M1 1 μM
T3 construct: purchased Corning Life Sciences (Woburn, MA, USA)
T3 sequence (P10635 whole entry): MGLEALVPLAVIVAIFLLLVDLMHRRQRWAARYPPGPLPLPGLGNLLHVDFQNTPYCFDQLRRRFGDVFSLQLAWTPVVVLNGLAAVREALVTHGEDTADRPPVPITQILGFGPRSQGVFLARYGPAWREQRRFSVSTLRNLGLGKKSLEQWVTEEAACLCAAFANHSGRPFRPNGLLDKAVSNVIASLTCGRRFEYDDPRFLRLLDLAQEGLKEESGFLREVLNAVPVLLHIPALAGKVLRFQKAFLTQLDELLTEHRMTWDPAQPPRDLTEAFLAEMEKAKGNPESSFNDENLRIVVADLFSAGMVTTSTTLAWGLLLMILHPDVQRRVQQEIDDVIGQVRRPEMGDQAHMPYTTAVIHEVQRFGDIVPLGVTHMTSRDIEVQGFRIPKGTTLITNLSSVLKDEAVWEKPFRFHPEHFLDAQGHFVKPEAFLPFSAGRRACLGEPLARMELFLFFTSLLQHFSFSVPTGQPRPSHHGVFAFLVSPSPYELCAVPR
Method: as §1, §2

[4] = target: T4, CYP2E1 (Homo sapiens, UniProt P05181); assay: Incubation with human cDNA-expressed CYP2E1; details: CYP2E1, 30 min at 37 °C with NADPH; ETN101 10 μM or M1 1 μM
T4 construct: purchased Corning Life Sciences (Woburn, MA, USA)
T4 sequence (P05181 whole entry): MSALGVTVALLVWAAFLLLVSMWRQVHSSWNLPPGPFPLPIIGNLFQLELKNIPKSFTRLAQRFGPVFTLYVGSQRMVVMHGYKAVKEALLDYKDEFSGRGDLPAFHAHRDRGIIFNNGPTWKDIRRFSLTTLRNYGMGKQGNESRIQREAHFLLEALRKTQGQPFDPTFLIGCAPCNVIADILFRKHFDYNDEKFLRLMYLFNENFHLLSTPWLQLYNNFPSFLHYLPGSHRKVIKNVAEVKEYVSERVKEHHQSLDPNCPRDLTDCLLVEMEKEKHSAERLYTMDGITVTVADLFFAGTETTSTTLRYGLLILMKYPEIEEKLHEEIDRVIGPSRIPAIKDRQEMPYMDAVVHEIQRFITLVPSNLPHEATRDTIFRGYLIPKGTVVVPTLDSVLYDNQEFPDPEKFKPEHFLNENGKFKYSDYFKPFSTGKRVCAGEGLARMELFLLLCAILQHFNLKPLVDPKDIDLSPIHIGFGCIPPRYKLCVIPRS
Method: as §1, §2

[5] = target: T5, CES1c (Homo sapiens, UniProt P23141); assay: Incubation with human recombinant CES1c; details: 60 min at 37 °C, ETN101 10 μM or M1 1 μM
T5 construct: purchased Corning Life Sciences (Woburn, MA, USA)
T5 sequence (P23141 18-566 isoform P23141-3 limits assumed): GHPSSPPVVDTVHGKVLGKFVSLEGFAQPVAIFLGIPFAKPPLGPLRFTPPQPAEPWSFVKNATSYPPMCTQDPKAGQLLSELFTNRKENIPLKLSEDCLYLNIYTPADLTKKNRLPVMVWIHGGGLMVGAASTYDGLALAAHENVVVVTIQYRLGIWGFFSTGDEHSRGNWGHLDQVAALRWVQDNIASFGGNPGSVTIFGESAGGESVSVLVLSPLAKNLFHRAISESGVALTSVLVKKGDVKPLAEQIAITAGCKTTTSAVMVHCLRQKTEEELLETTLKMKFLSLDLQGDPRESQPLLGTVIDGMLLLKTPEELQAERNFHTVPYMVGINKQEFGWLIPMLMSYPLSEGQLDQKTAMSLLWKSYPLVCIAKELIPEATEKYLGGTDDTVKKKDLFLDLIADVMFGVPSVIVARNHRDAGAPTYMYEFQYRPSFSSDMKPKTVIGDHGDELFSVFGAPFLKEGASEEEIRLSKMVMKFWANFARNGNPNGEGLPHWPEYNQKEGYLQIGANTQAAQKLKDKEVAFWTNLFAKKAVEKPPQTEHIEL
Method: To screen for CES enzymes responsible for the hydrolysis of ETN101 or M1, 50 μL of reaction mixtures containing human cDNA-expressed CES enzymes (CES1b, CES1c, and CES2) at the concentration of 1 mg/mL, 10 μM ETN101, or 1 μM M1 in 0.1 M potassium phosphate buffer were incubated at 37 °C for 0 min or 60 min in triplicate. The reactions were quenched by adding 50 μL of ice-cold acetonitrile containing the internal standard (camptothecin, 10 μg/mL). Following centrifugation at 13,000 rpm for 5 min, a 2 μL aliquot of the supernatant was injected into the LC-MS/MS system. The reliability of the analysis was confirmed by incorporating three different levels of quality control samples at the beginning and end of each analytical batch.
as §2, with “separation. The mobile phases comprised 0.1% (v/v) formic acid in water (mobile phase A) and 0.1% formic acid (v/v) in acetonitrile (mobile phase B).” for “separation.”

| SMILES | Percentage remaining [1] | Percentage remaining [2] | Percentage remaining [3] | Percentage remaining [4] | Percentage remaining [5] |
| --- | --- | --- | --- | --- | --- |
| NCC(N)C(=O)Nc1ccc(-c2nc3ccccc3s2)cc1 (stereo not shown) [ETN101, 2,3-diamino-N-(4-(benzo[d]thiazol-2-yl)phenyl)propanamide] | 105.0% | 113.0% | 86.9% | 81.1% | 107.3% |
| Nc1ccc(-c2nc3ccccc3s2)cc1 [M1, 2-(4-aminophenyl)benzothiazole] | 86.6% | 68.7% | 83.0% | 97.3% | 122.7% |
